From patent publication US20080275085A1, “Piperidine derivative and use thereof” (priority 2007, published 2008)
Counter-ions that a name gives are not always drawn.

These molecules were tested against T1, substance P receptor (Homo sapiens, UniProt P25103) (assay: Radioligand receptor binding inhibitory activity (125I-BHSP binding, receptor from IM-9 cells)). Settings: receptor from human lymphoblast cells (IM-9); radioligand 125I-BHSP; 25° C., 30 min.
T1 construct: The receptor was prepared from human lymphoblast cells (IM-9); endogenous in cells; host or cells: IM-9 human lymphoblast cells (membrane fraction, 100,000xG precipitate)
Experimental: Radioligand Receptor Binding Inhibitory Activity (Binding Inhibitory Activity Using Receptor from Human Lymphoblast Cells (IM-9))
The method of M. A. Cascieri et al., “Molecular Pharmacology, vol. 42, p. 458 (1992)” was modified and used. The receptor was prepared from human lymphoblast cells (IM-9).
IM-9 cells (2×10^5 cells/mL) were inoculated and incubated for 3 days, which was then subjected to centrifugation for 10 min. at 500×G to give cell pellets. The obtained pellets were washed with PBS (GIBCO), disrupted in buffer A (50 mM tris.hydrochloric acid buffer (pH 7.4) containing 120 mM sodium chloride, 5 mM potassium chloride, 2 μg/mL chymostatin, 40 μg/mL bacitracin, 40 μg/mL APMSF, 1 mM ethylenediamine tetra acetic acid) using a polytron.homogenizer [manufactured by Kinematika, Germany], and centrifuged at 100,000×G for 40 min. The precipitated fraction was suspended in buffer B (50 mM Tris-HCl (pH 7.4), 0.02% bovine serum albumin, 2 μg/mL chymostatin, 40 μg/mL bacitracin, 40 μg/mL APMSF, 3 mM MgCl2), which was then cryopreserved (−80° C.) as a receptor specimen.
Buffer B (50 μL) was added to a 96 well microassay plate (CORNING). Thereto was added 50 μL of membrane preparation suspended in buffer B at 250 μg/mL. A measurement buffer (50 μL) containing 2% dimethyl sulfoxide was added to examine total binding; 4 μM unlabeled SP (50 μL) diluted with a measurement buffer containing 2% dimethyl sulfoxide was added to examine non-specific binding; and 50 μL of a test compound (containing 2% dimethyl sulfoxide) diluted with a measurement buffer was added to examine binding inhibitory activity of the test compound. In addition, […] ^125I-BHSP solution (50 μL) was added to each well.
After reaction at 25° C. for 30 min, the cells were rapidly filtered through a GF/C filter plate (PerkinElmer) using a cell harvester (manufactured by PerkinElmer) to quench the reaction, and washed 10 times with 250 μL of 50 mM tris-HCl buffer (pH 7.4) containing 0.02% bovine serum albumin. The GF/C filter plate was dried, MicroScinti 0 (20 μL) was added, and the radioactivity was measured with TopCount (manufactured by PerkinElmer). The GF/C filter plate was immersed in 0.3% polyethylene imine for one day before use.
Specific binding is a value obtained by subtracting nonspecific binding from total binding. The binding inhibitory activity of a test compound is shown by a ratio of a value obtained by subtracting a measurement value with addition of a test compound from the total binding, relative to specific binding.
The antagonistic activity of the compounds obtained in the Examples was determined as a concentration necessary for causing 50% inhibition (IC50 value) under the above-described conditions, and the results shown in Table 34 were obtained.
The radio ligand means substance P labeled with [^125I].

T1 sequence (P25103 whole entry): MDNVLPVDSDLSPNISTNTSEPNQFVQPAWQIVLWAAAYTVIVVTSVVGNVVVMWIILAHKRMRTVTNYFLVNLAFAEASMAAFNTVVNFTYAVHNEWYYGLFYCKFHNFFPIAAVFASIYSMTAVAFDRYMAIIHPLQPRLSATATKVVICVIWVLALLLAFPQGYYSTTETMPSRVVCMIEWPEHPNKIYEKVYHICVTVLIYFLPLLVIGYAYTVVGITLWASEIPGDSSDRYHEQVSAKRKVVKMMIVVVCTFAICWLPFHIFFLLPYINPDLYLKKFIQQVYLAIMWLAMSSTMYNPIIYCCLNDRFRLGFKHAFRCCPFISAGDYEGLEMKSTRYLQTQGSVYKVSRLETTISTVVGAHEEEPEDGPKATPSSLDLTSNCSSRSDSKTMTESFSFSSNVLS

IC50 | SMILES
0.096 nM | Cc1cc(F)ccc1[C@@H]1CN(CC(=O)NC2CC2)CC[C@H]1C(=O)N(C)Cc1cc(C(F)(F)F)cc(C(F)(F)F)c1 (relative stereo) [Example 103, (3R*,4R*)—N-[3,5-bis(trifluoromethyl)benzyl]-1-[2-(cyclopropylamino)-2-oxoethyl]-3-(4-fluoro-2-methylphenyl)-N-methylpiperidine-4-carboxamide monohydrochloride]
0.042 nM | Cc1cc(F)ccc1[C@@H]1CN(CC(=O)N2CCC(O)CC2)CC[C@H]1C(=O)N(C)Cc1cc(C(F)(F)F)cc(C(F)(F)F)c1 (relative stereo) [Example 104, (3R*,4R*)—N-[3,5-bis(trifluoromethyl)benzyl]-3-(4-fluoro-2-methylphenyl)-1-[2-(4-hydroxypiperidin-1-yl)-2-oxoethyl]-N-methylpiperidine-4-carboxamide monohydrochloride]
0.026 nM | Cc1cc(F)ccc1[C@@H]1CN(C2CCN(C(=O)C(N)=O)CC2)CC[C@H]1C(=O)N(C)Cc1cc(C(F)(F)F)cc(C(F)(F)F)c1 (relative stereo) [Example 108, (3R*,4R*)-1′-[amino(oxo)acetyl]-N-[3,5-bis(trifluoromethyl)benzyl]-3-(4-fluoro-2-methylphenyl)-N-methyl-1,4′-bipiperidine-4-carboxamide monohydrochloride]
0.023 nM | Cc1cc(F)ccc1[C@@H]1CN(C2CCN(C(N)=O)CC2)CC[C@H]1C(=O)N(C)Cc1cc(C(F)(F)F)cc(C(F)(F)F)c1 (relative stereo) [Example 109, (3R*,4R*)—N^4-[3,5-bis(trifluoromethyl)benzyl]-3-(4-fluoro-2-methylphenyl)-N^4-methyl-1,4′-bipiperidine-1′,4-dicarboxamide monohydrochloride]
0.038 nM | Cc1cc(F)ccc1[C@@H]1CN(CC(N)=O)CC[C@H]1C(=O)N(C)Cc1cc(C(F)(F)F)cc(C(F)(F)F)c1 (relative stereo) [Example 112, (3R*,4R*)-1-(2-amino-2-oxoethyl)-N-[3,5-bis(trifluoromethyl)benzyl]-3-(4-fluoro-2-methylphenyl)-N-methylpiperidine-4-carboxamide monohydrochloride]
0.061 nM | Cc1cc(F)ccc1[C@@H]1CN(C(C)(C)C(N)=O)CC[C@H]1C(=O)N(C)Cc1cc(C(F)(F)F)cc(C(F)(F)F)c1 (relative stereo) [Example 113, (3R*,4R*)-1-(2-amino-1,1-dimethyl-2-oxoethyl)-N-[3,5-bis(trifluoromethyl)benzyl]-3-(4-fluoro-2-methylphenyl)-N-methylpiperidine-4-carboxamide monohydrochloride]
0.043 nM | Cc1cc(F)ccc1[C@@H]1CN(C(C)CO)CC[C@H]1C(=O)N(C)Cc1cc(C(F)(F)F)cc(C(F)(F)F)c1 (relative stereo) [Example 120, (3R*,4R*)—N-[3,5-bis(trifluoromethyl)benzyl]-3-(4-fluoro-2-methylphenyl)-1-(2-hydroxy-1-methylethyl)-N-methylpiperidine-4-carboxamide monohydrochloride]
0.025 nM | Cc1cc(F)ccc1[C@@H]1CN(CCC(C)(C)O)CC[C@H]1C(=O)N(C)Cc1cc(C(F)(F)F)cc(C(F)(F)F)c1 (relative stereo) [Example 123, (3R*,4R*)—N-[3,5-bis(trifluoromethyl)benzyl]-3-(4-fluoro-2-methylphenyl)-1-(3-hydroxy-3-methylbutyl)-N-methylpiperidine-4-carboxamide monohydrochloride]
0.095 nM | CC(=O)Nc1ccc(N2CC[C@@H](C(=O)N(C)Cc3cc(C(F)(F)F)cc(C(F)(F)F)c3)[C@H](c3ccc(F)cc3C)C2)nc1 (relative stereo) [Example 129, (3R*,4R*)-1-[5-(acetylamino)pyridin-2-yl]-N-[3,5-bis(trifluoromethyl)benzyl]-3-(4-fluoro-2-methylphenyl)-N-methylpiperidine-4-carboxamide monohydrochloride]
0.037 nM | Cc1cc(F)ccc1[C@@H]1CN(S(=O)(=O)CCN2CCOCC2)CC[C@H]1C(=O)N(C)Cc1cc(C(F)(F)F)cc(C(F)(F)F)c1 (relative stereo) [Example 139, (3R*,4R*)—N-[3,5-bis(trifluoromethyl)benzyl]-3-(4-fluoro-2-methylphenyl)-N-methyl-1-[(2-morpholin-4-ylethyl)sulfonyl]piperidine-4-carboxamide monohydrochloride]
0.077 nM | Cc1cc(F)ccc1[C@@H]1CN(CC(N)=O)CC[C@H]1C(=O)N(Cc1cc(C(F)(F)F)cc(C(F)(F)F)c1)C1CC1 (relative stereo) [Example 169, (3R*,4R*)-1-(2-amino-2-oxoethyl)-N-[3,5-bis(trifluoromethyl)benzyl]-N-cyclopropyl-3-(4-fluoro-2-methylphenyl)piperidine-4-carboxamide monohydrochloride]
0.051 nM | Cc1ccsc1C1CN(C(=O)C2CCN(C(=O)CO)CC2)CCC1C(=O)N(C)[C@@H](C)c1cc(C(F)(F)F)cc(C(F)(F)F)c1 (single isomer, unassigned; more polar) [Example 176, (3R*,4S*)—N-{(1S)-1-[3,5-bis(trifluoromethyl)phenyl]ethyl}-1-[(1-glycoloylpiperidin-4-yl)carbonyl]-N-methyl-3-(3-methyl-2-thienyl)piperidine-4-carboxamide (more polar)]
0.024 nM | Cc1ccccc1[C@H]1CN(C(=O)C2CCN(C(=O)CO)CC2)CC[C@@H]1C(=O)N(C)Cc1cc(C(F)(F)F)cc(C(F)(F)F)c1 [Example 18, (3S,4S)—N-[3,5-bis(trifluoromethyl)benzyl]-1-[[1-glycoloylpiperidin-4-yl]carbonyl]-N-methyl-3-(2-methylphenyl)piperidine-4-carboxamide]
0.022 nM | Cc1ccccc1[C@H]1CN(C(=O)C2CCN(C(=O)[C@H](C)O)CC2)CC[C@@H]1C(=O)N(C)Cc1cc(C(F)(F)F)cc(C(F)(F)F)c1 [Example 28, (3S,4S)—N-(3,5-bis(trifluoromethyl)benzyl]-1-({1-[(2S)-2-hydroxypropanoyl]piperidin-4-yl}carbonyl)-N-methyl-3-(2-methylphenyl)piperidine-4-carboxamide]
0.023 nM | Cc1ccccc1[C@H]1CN(C(=O)C2CCN(C(=O)[C@@H](C)O)CC2)CC[C@@H]1C(=O)N(C)Cc1cc(C(F)(F)F)cc(C(F)(F)F)c1 [Example 29, (3S,4S)—N-[3,5-bis(trifluoromethyl)benzyl]-1-({1-[(2R)-2-hydroxypropanoyl]piperidin-4-yl}carbonyl)-N-methyl-3-(2-methylphenyl)piperidine-4-carboxamide]
0.057 nM | Cc1ccccc1[C@H]1CN(C(=O)CN2C(=O)OC(C)(C)C2=O)CC[C@@H]1C(=O)N(C)[C@@H](C)c1cc(C(F)(F)F)cc(C(F)(F)F)c1 [Example 30, (3S,4S)—N-{(1S)-1-[3,5-bis(trifluoromethyl)phenyl]ethyl}-1-[(5,5-dimethyl-2,4-dioxo-1,3-oxazolidin-3-yl)acetyl]-N-methyl-3-(2-methylphenyl)piperidine-4-carboxamide]
0.06 nM | Cc1cc(F)ccc1[C@H]1CN(C(=O)CN2C(=O)OC(C)(C)C2=O)CC[C@@H]1C(=O)N(C)Cc1cc(C(F)(F)F)cc(C(F)(F)F)c1 [Example 148, (3S,4S)—N-[3,5-bis(trifluoromethyl)benzyl]-1-[(5,5-dimethyl-2,4-dioxo-1,3-oxazolidin-3-yl)acetyl]-3-(4-fluoro-2-methylphenyl)-N-methylpiperidine-4-carboxamide]
0.015 nM | Cc1cc(F)ccc1[C@H]1CN(C(=O)C2CCN(C(=O)CO)CC2)CC[C@@H]1C(=O)N(C)Cc1cc(C(F)(F)F)cc(C(F)(F)F)c1 [Example 149, (3S,4S)—N-[3,5-bis(trifluoromethyl)benzyl]-3-(4-fluoro-2-methylphenyl)-1-[(1-glycoloylpiperidin-4-yl)carbonyl]-N-methylpiperidine-4-carboxamide]
0.033 nM | Cc1cc(F)ccc1[C@H]1CN(C(=O)C2CCN(C(=O)[C@H](C)O)CC2)CC[C@@H]1C(=O)N(C)Cc1cc(C(F)(F)F)cc(C(F)(F)F)c1 [Example 150, (3S,4S)—N-[3,5-bis(trifluoromethyl)benzyl]-3-(4-fluoro-2-methylphenyl)-1-({1-[(2S)-2-hydroxypropanoyl]piperidin-4-yl}carbonyl)-N-methylpiperidine-4-carboxamide]
